Common to all, as to format: physicochemical
A short description of data set [1]: Solubility screen with crystalline material (Form I). On the procedure:
An extensive range of experiments were carried out using either Compound I crystalline Form I or amorphous Compound I as the input material. A set of 32 solvents with diverse properties (including 3 solvent:water mixtures 95:5 v:v) were selected. All solvents were used for the solubility screen but for the subsequent screens a selection of these solvents were used depending on the solubility.
Compound I Form I was weighed into 2 mL vials and treated with increasing amounts of solvent. Solvent was added in 10 or 20 volume portions until the solid dissolved or a maximum volume of 2 mL (80 volumes) had been reached. After each addition of solvent the samples were warmed to 50° C. […] After 3 days of maturation samples were equilibrated to room temperature and small amounts of each sample were filtered through glass frits under vacuum and were analyzed by XRPD. […]
Solutions were stirred at 50° C. for 1 hour then were cooled to 5° C. using a linear cooling rate of 0.1° C./min. […] Observations were made and any solids were analyzed by XRPD as above and solutions were cooled in the freezer for 3 days. Solids were then analyzed by XRPD and samples that remained solutions were left to evaporate slowly through loosened lids at ambient conditions. When solids were produced they were analyzed by XRPD.

A short description of data set [2]: Static stability of amorphous Compound I (ambient conditions; 40° C./75% RH). On the procedure: Full characterization was carried out on a 100 mg scale test batch (lyophilised from 100% t-butanol).
Data set [3] in a line: Kinetic solubility of amorphous Compound I. The note with it: kinetic from dmso stock; stated in embodiment text only.

The structures appear in SMILES notation. Values after ≈ are worked out from the molar mass of the structure shown. “Also recorded” adds a separate entry of the source.

As to `CC(C)OC(=O)[C@@H](C)N[P@@](=O)(OC[C@H]1O[C@@H](n2ccc(=O)[nH]c2=O)[C@](C)(Cl)[C@@H]1O)Oc1ccccc1` [Compound I crystalline Form I], in data set [1], the “solubility in most primary alcohols” value is “highly soluble”.

Consider `CC(C)OC(=O)[C@@H](C)N[P@@](=O)(OC[C@H]1O[C@@H](n2ccc(=O)[nH]c2=O)[C@](C)(Cl)[C@@H]1O)Oc1ccccc1` [Amorphous Compound I], for which the “Static Stability at 40° C./75% RH: time to deliquesce to an oil/gum” value in data set [2] (40° C./75% RH) is “Deliquesces to an oil/gum in <1 hour,”. Moreover, the “Static Stability at 40° C./75% RH: solid form” value in data set [2] (40° C./75% RH, 1, 15 and 44 days) is “remains amorphous after 1 day,; also recorded: after 15 days amorphous but hint of a peak at 6.5 °20; also recorded: after 44 days remains amorphous except for peak at 6.5 °20”. Also, the “Static Stability at ambient conditions” value in data set [2] (solid form on storage, lyophilised batch) is “Remains amorphous after 22 days”. The kinetic solubility in data set [3] was approximately 2000 µg/mL (≈ 3.66 mM).

These data come from patent publication US20170066795A1, “SOLID PRODRUG FORMS OF 2'-CHLORO-2'-METHYL URIDINE FOR HCV” (IDENIX PHARMACEUTICALS LLC, priority 2014, published 2017).
